Laboratory results taken from patent US8883827B2, “Azole derivatives as WTN pathway inhibitors” (Oslo University Hospital HF, priority 2009, dated 2014).

Tests used:
[1] = test system: SW480 cells; experiment: Illumina microarray gene expression analysis; type: cell-based; conditions: x at 25 μM only
Procedure: A microarray analysis using an Illumina® array was performed in triplicate to investigate differential gene expression in cells treated with a Wnt pathway inhibitor. […] In vitro transcription reactions were incubated overnight (14 hr). Labeled cRNA was hybridized to Illumina® Human-6 v3 BeadChips (Illumina, San Diego, Calif.) at 58° C. overnight, according to the Illumina® Whole-Genome Gene Expression Protocol for BeadStation (Doc. #11226030.rev.C, Illumina Inc.). The hybridized BeadChip was stained with streptavidin-Cy3 (Amersham™, PA43001) for visualization and scanned with an Illumina® BeadArray Reader. The scanned images were imported into BeadStudio 3.1.3.0 (Illumina Inc) for extraction and quality control. A criterion of 0.5-fold change in expression was applied to the analysis. […] A list of differentially expressed genes of interest is given below in tables 1 and 2. […] Many known Wnt target genes (column 3) were influenced in treated cells. Some genes were influenced that are also affected in Ls174T colorectal cancer cells expressing an inducible dominant negative form of TCF-4 (column 4) (van de Wetering et al., Mol. Cell. Biol. (2008) 28(8), p. 2732-44). Other influenced genes that are important for cell cycle control and other genes correlated to regulated canonical Wnt signaling are also shown. The degree of modulation (column 5) is an indication of the degree of change between the non-treated and compound No. 1 treated samples.

[2] = target: T1, MLK1(h) (Homo sapiens, UniProt P80192); experiment: Kinase screen; type: biochemical; conditions: 0.1% DMSO control = 100%
T1 construct: purchased Millipore (KinaseProfiler service)
T1 sequence (P80192 whole entry): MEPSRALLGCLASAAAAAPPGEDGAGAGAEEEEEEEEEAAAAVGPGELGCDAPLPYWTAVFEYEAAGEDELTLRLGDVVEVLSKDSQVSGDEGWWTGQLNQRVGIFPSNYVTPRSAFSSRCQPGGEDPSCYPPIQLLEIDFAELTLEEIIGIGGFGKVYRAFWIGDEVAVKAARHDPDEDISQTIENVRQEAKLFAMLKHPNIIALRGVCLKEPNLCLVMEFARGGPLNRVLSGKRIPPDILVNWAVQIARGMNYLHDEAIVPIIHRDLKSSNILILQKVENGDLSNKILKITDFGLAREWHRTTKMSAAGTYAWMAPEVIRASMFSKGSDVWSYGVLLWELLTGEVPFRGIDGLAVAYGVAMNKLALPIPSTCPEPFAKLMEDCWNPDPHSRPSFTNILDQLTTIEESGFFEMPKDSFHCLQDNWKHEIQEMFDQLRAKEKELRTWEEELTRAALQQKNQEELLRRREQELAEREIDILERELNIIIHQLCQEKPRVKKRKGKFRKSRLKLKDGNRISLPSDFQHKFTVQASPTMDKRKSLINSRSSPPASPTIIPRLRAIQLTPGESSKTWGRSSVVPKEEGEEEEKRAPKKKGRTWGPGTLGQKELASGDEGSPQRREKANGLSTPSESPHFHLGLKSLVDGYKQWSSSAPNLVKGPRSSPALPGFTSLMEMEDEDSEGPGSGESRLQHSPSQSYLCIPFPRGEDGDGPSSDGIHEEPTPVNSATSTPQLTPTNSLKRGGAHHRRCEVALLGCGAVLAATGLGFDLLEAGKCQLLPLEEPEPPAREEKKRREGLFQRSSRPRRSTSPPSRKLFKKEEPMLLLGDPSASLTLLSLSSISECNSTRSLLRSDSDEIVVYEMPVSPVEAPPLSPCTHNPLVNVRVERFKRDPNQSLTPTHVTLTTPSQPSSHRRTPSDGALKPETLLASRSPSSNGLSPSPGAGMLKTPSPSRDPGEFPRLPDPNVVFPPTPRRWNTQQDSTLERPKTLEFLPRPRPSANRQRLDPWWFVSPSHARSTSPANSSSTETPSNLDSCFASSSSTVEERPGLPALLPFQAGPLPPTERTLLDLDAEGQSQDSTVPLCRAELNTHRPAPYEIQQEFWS

[3] = target: T2, MEK1(h) (Homo sapiens, UniProt Q02750); experiment: Kinase screen; type: biochemical; conditions: 0.1% DMSO control = 100%
T2 construct: purchased Millipore (KinaseProfiler service)
T2 sequence (Q02750 whole entry): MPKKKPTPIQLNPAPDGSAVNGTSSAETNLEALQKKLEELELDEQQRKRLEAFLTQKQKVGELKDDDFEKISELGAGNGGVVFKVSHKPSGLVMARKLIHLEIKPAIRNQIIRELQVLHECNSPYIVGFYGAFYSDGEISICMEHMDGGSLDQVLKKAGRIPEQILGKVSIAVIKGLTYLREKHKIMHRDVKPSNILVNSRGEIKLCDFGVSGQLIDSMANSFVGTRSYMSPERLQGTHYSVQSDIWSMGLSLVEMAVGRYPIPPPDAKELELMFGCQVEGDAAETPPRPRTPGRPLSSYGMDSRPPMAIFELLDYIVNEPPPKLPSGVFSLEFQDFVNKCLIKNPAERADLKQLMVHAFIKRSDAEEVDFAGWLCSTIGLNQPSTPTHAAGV

[4] = target: T3, CDK6/cyclinD3(h) (Homo sapiens, UniProt Q00534); experiment: Kinase screen; type: biochemical; conditions: 0.1% DMSO control = 100%
T3 construct: purchased Millipore (KinaseProfiler service)
T3 sequence (Q00534 whole entry): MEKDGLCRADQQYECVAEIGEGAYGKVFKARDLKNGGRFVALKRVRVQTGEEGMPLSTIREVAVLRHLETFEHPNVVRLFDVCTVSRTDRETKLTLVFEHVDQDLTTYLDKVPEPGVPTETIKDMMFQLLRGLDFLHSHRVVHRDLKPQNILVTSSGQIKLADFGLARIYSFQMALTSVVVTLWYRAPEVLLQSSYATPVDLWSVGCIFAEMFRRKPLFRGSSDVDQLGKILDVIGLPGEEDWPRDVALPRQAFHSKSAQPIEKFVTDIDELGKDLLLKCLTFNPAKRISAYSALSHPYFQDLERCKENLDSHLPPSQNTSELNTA
T3 sequence (P30281 whole entry partner): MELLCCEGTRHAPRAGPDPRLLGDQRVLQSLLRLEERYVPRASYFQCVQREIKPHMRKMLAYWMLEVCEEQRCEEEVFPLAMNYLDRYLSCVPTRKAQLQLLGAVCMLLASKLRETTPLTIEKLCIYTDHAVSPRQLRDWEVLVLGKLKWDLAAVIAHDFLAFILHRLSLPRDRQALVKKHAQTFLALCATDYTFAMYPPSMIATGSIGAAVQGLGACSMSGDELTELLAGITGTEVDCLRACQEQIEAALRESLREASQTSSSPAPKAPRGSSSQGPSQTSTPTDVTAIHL

[5] = test system: LiCl-induced activation of canonical Wnt signaling; experiment: LiCl-induced ST-Luc reporter assay in HEK293 cells; type: cell-based; conditions: Homo sapiens; HEK293, 25 mM LiCl, 24 h; read-out: IC50, antagonism of LiCl-induced activation of canonical Wnt signaling
Procedure: Transfection of HEK293 cells was performed as described in Example 22, but using 0.23 μg NF-κB-Luciferase and 0.02 μg Renilla. […] All treated reporter cells were finally lysed and the firefly luciferase and Renilla activities were measured on a 20/20n Luminometer (Turner BioSystems) as described in the Dual-Glo™ Luciferase Assay System Technical Manual (Promega).

[6] = test system: SW480 cells; experiment: BrdU/PI cell cycle analysis; type: cell-based; conditions: 25 μM, 72 h
Procedure: Cell cycle progression was measured by BrdU labeling of cultured cells that were counterstained with propidium iodide (PI).
SW480 cells were seeded and exposed to compounds for 3 days changing medium every day as described in Example 24. After a 30 minute incubation with 10 μM BrdU, the cells were trypsinized and stained with 1:100 diluted mouse anti-BrdU antibody (Roche) and Alexa Fluor®488 goat anti-mouse antibody (A 11001, Invitrogen). Counterstaining was done with 10 μg/mL PI in 200 μg/mL RNase I (both Sigma). Samples were analyzed on the PAS-PPCS flow cytometer and cell sorter (Partec).

## COc1ccc(-n2c(SCc3nc(-c4ccc(C)cc4)no3)nnc2-c2ccncc2)cc1 [Compound 1]
[1]
  Degree of modulation: bone morphogenetic protein 7: − (moderate down-regulation (log^2 ratio of between −0.5 and −1.0))
  Degree of modulation: c-abl oncogene 1, receptor tyrosine kinase: − (moderate down-regulation (log^2 ratio of between −0.5 and −1.0))
  Degree of modulation: cell division cycle 25 homolog C (S. pombe): − (moderate down-regulation (log^2 ratio of between −0.5 and −1.0))
  Degree of modulation: cell division cycle associated 8: − (moderate down-regulation (log^2 ratio of between −0.5 and −1.0))
  Degree of modulation: cyclin B2: − (moderate down-regulation (log^2 ratio of between −0.5 and −1.0))
  Degree of modulation: cyclin-dependent kinase 8: − (moderate down-regulation (log^2 ratio of between −0.5 and −1.0))
  Degree of modulation: cyclin-dependent kinase inhibitor 1B (p27, Kip1): − (moderate down-regulation (log^2 ratio of between −0.5 and −1.0))
  Degree of modulation: cysteine-rich, angiogenic inducer, 61: −−− (very strong down-regulation (log^2 ratio of between −1.5 and −2))
  Degree of modulation: disabled homolog 2, mitogen-responsive phosphoprotein (Drosophila): − (moderate down-regulation (log^2 ratio of between −0.5 and −1.0))
  Degree of modulation: dynein, axonemal, heavy chain 3: − (moderate down-regulation (log^2 ratio of between −0.5 and −1.0))
  Degree of modulation: dynein, axonemal, heavy chain 5: + (moderate up-regulation (log^2 ratio of between 0.5 and 1.0))
  Degree of modulation: dynein, light chain, LC8-type 2: − (moderate down-regulation (log^2 ratio of between −0.5 and −1.0))
  Degree of modulation: dynein, light chain, roadblock-type 1: − (moderate down-regulation (log^2 ratio of between −0.5 and −1.0))
  Degree of modulation: ephrin-A4: − (moderate down-regulation (log^2 ratio of between −0.5 and −1.0))
  Degree of modulation: ephrin-B2: ++ (strong up-regulation (log^2 ratio of between 1.0 and 1.5))
  Degree of modulation: epidermal growth factor receptor (erythroblastic leukemia viral (v-erb-b) oncogene homolog, avian): + (moderate up-regulation (log^2 ratio of between 0.5 and 1.0))
  Degree of modulation: ets variant gene 3: −− (strong down-regulation (log^2 ratio of between −1.0 and −1.5))
  Degree of modulation: fibroblast growth factor 20: − (moderate down-regulation (log^2 ratio of between −0.5 and −1.0))
  Degree of modulation: forkhead box F1: + (moderate up-regulation (log^2 ratio of between 0.5 and 1.0))
  Degree of modulation: forkhead box M1: − (moderate down-regulation (log^2 ratio of between −0.5 and −1.0))
  Degree of modulation: frizzled homolog 2 (Drosophila): −− (strong down-regulation (log^2 ratio of between −1.0 and −1.5))
  Degree of modulation: interleukin 8: ++ (strong up-regulation (log^2 ratio of between 1.0 and 1.5))
  Degree of modulation: low density lipoprotein receptor-related protein 5-like: + (moderate up-regulation (log^2 ratio of between 0.5 and 1.0))
  Degree of modulation: matrix metallopeptidase 7 (matrilysin, uterine): − (moderate down-regulation (log^2 ratio of between −0.5 and −1.0))
  Degree of modulation: met proto-oncogene (hepatocyte growth factor receptor): + (moderate up-regulation (log^2 ratio of between 0.5 and 1.0))
  Degree of modulation: mitogen-activated protein kinase kinase kinase kinase 1: − (moderate down-regulation (log^2 ratio of between −0.5 and −1.0))
  Degree of modulation: nitric oxide synthase 3 (endothelial cell): +++ (very strong up-regulation (log^2 ratio of between 1.5 and 2))
  Degree of modulation: origin recognition complex, subunit 1-like (yeast): − (moderate down-regulation (log^2 ratio of between −0.5 and −1.0))
  Degree of modulation: p53 and DNA damage regulated 1: − (moderate down-regulation (log^2 ratio of between −0.5 and −1.0))
  Degree of modulation: paired box 6: − (moderate down-regulation (log^2 ratio of between −0.5 and −1.0))
  Degree of modulation: paired related homeobox 2: − (moderate down-regulation (log^2 ratio of between −0.5 and −1.0))
  Degree of modulation: patched homolog 1 (Drosophila): − (moderate down-regulation (log^2 ratio of between −0.5 and −1.0))
  Degree of modulation: pituitary tumor-transforming 1: − (moderate down-regulation (log^2 ratio of between −0.5 and −1.0))
  Degree of modulation: plasminogen activator, urokinase: + (moderate up-regulation (log^2 ratio of between 0.5 and 1.0))
  Degree of modulation: plasminogen activator, urokinase receptor: + (moderate up-regulation (log^2 ratio of between 0.5 and 1.0))
  Degree of modulation: runt-related transcription factor 2: − (moderate down-regulation (log^2 ratio of between −0.5 and −1.0))
  Degree of modulation: sal-like 4 (Drosophila): + (moderate up-regulation (log^2 ratio of between 0.5 and 1.0))
  Degree of modulation: sex comb on midleg-like 1 (Drosophila): − (moderate down-regulation (log^2 ratio of between −0.5 and −1.0))
  Degree of modulation: snail homolog 2 (Drosophila): ++ (strong up-regulation (log^2 ratio of between 1.0 and 1.5))
  Degree of modulation: topoisomerase (DNA) II alpha 170 kDa: − (moderate down-regulation (log^2 ratio of between −0.5 and −1.0))
  Degree of modulation: tumor necrosis factor receptor superfamily, member 19: − (moderate down-regulation (log^2 ratio of between −0.5 and −1.0))
[2]
  activity at 10 µM: 99%
[3]
  activity at 10 µM: 108%
[4]
  activity at 10 µM: 94%
[5]
  IC50: 420 nM
[6]; DMSO control 28.4%
  percentage of cells in S phase: 16.2%
[6]; DMSO control 37.3%
  percentage of G1-phase cells: 46.4%
